The values below come from publication PMC3892053, “Pharmacokinetic/pharmacodynamic modeling for the determination of a cimicoxib dosing regimen in the dog” (BMC Veterinary Research, 2013).

Structures are written as SMILES. ≈ marks a conversion by molar mass, not a printed value. Read-outs that look alike come from different tables or passages of the source.

By IC50 is commonly meant the concentration at which inhibition is half-maximal. What is called half-life is the time needed for the level to fall by half in the phase considered.

The subject of one data set is COX-2. More on the design: method as in PMID 12877584. The note with it: human whole blood assay, cited from earlier work.
The nature of data set [1]: Plasma half-life after oral administration in four dog breeds (Study 2). The format is in vivo. The note with it: both sexes, 2 mg/kg. The protocol:
Four different sized-breeds from four different private breeders were tested (ten individuals were used from each breed): Anglo-French Hounds, Pointers, Cavalier King Charles Spaniels and Bernese Mountain Dogs. The bodyweights of the dogs ranged between [27.2, 37.4], [16.8, 22.3], [7, 9.8], [44.5, 62.5] kg; the ages were [0.6, 2.5], [1.9, 11.8], [1.7, 6.7], [1.4, 6.4] years for the Anglo-French Hounds, Pointers, Cavalier King Charles Spaniels and Bernese Mountain Dogs breeds, respectively. The sex ratios (male/female) were 5/5, 6/4, 4/6 and 4/6 for these same breeds. Prior to the experiment, all the animals underwent a clinical examination by a veterinarian, along with a complete biochemistry profile. No clinically important abnormality was noted during these examinations.
The half-life of elimination of cimicoxib was studied in four different sized breeds (40 dogs). Two mg/kg of cimicoxib was administered orally, in the form of 10 and 20 mg (hard gelatin capsules, Vetoquinol). For each dog, four blood samples (5 mL, heparinized tubes) were taken, at 6 h, 8 h, 10 h and 24 h after administration of cimicoxib, centrifuged (3000 G) and stored (- 20°C).
Plasma samples were analyzed by a High Performance Liquid Chromatography (HPLC) method using ultraviolet (UV) detection. Briefly, an internal standard (UR-8877) and cimicoxib (UR-8880) were extracted from plasma by a solid liquid (methanol) extraction process using HLB Oasis cartridges (Waters). The extraction yield was about 90%. The HPLC apparatus consists of a pump system equipped with an automatic injector and an UV detector (242 nm). […] The mobile phase was a mixture of 0.65 L of ultra-pure water and 0.35 L of acetonitrile which was delivered at a flow rate of 1 mL per min. Under these conditions, cimicoxib (UR-8880) and the internal standard (UR-8877) were eluted at retention times of 6 to 7 min and 10 to 11 min, respectively. The method was linear over the calibration range of 0.01 to 5 μg/mL using a linear model weighted by 1/X^2. Within-day and day-to-day coefficients of variation were less than 9% and the accuracy ranged from 94 to 103%, indicating an appropriate precision and accuracy for the analytical method. The lack of interference from endogenous compounds was verified on blank plasma from untreated dogs, establishing the specificity of the method. The validated limit of quantification was 0.01 μg/mL.
Half-life was estimated by log-linear regression (estimating the slope) using the non-compartmental approach implemented in Winnonlin.

Turning to `COc1ccc(-c2c(Cl)ncn2-c2ccc(S(N)(=O)=O)cc2)cc1F` [cimicoxib], in the data set on COX-2, the “IC50 COX-2 inhibition” value was 0.025 µg/mL (≈ 0.0655 µM). For the same compound, the IC50 in the data set with COX-2 (read-out: IC50 COX-2 inhibition) was 66 nM. The half-life in data set [1] (Anglo-French hound, po, oral 2 mg/kg, Anglo-French hounds (n = 10), read-out: plasma half-life, Maximum (converted)) was 4 h; in data set [1] (Anglo-French hound, po, oral 2 mg/kg, Anglo-French hounds (n = 10), read-out: plasma half-life, Mean (converted)), 3.2 h; in data set [1] (Anglo-French hound, po, oral 2 mg/kg, Anglo-French hounds (n = 10), read-out: plasma half-life, Minimum (converted)), 2 h; in data set [1] (Bernese mountain dog, po, oral 2 mg/kg, Bernese mountain dogs (n = 10), read-out: plasma half-life, Maximum (converted)) it was 5.8 h; in data set [1] (Bernese mountain dog, po, oral 2 mg/kg, Bernese mountain dogs (n = 10), read-out: plasma half-life, Mean (converted)), 4.4 h; in data set [1] (Bernese mountain dog, po, oral 2 mg/kg, Bernese mountain dogs (n = 10), read-out: plasma half-life, Minimum (converted)), 3.2 h. Moreover, the half-life is 3.5 h in data set [1] (Cavalier King Charles spaniel, po, oral 2 mg/kg, Cavalier King Charles spaniels (n = 10), read-out: plasma half-life, Maximum (converted)); 2.7 h in data set [1] (Cavalier King Charles spaniel, po, oral 2 mg/kg, Cavalier King Charles spaniels (n = 10), read-out: plasma half-life, Mean (converted)); 1.9 h in data set [1] (Cavalier King Charles spaniel, po, oral 2 mg/kg, Cavalier King Charles spaniels (n = 10), read-out: plasma half-life, Minimum (converted)); 5.9 h in data set [1] (Pointer, po, oral 2 mg/kg, Pointers (n = 10), read-out: plasma half-life, Maximum (converted)); 3.9 h in data set [1] (Pointer, po, oral 2 mg/kg, Pointers (n = 10), read-out: plasma half-life, Mean (converted)); 2.5 h in data set [1] (Pointer, po, oral 2 mg/kg, Pointers (n = 10), read-out: plasma half-life, Minimum (converted)). Moreover, the half-life in data set [1] (oral, the 40 dogs of four breeds, as summarised in Discussion, read-out: terminal half-life) was in the range of 2 to 4 h.
